Results on 7 molecules are retold here after patent publication US20020032151A1, “Modulating the permeability of a physiological barrier with an agent that modulates tyrosine phosphorylation” (priority 1993, published 2002).

In assay [1] the test system is MDCK strain I cells. Kind of assay: Transcellular electrical resistance (TER) of filter-grown MDCK strain I cells. Format: cell-based, canine.
Assay [2] concerns E-cadherin/catenin complex. Type of assay: cell-based, canine.
Assay [3] concerns bovine brain microvessel endothelial cells (BBECs). The settings on record: BBECs as well as endothelial cells derived from human brain; previously shown (Rubin et al. 1991); cited from earlier work.
The test system of assay [4] is MDCK strain I cells. Format: cell-based, canine.
In assay [5] the test system is pp60^v−src transfected rat 3Y1 cells. The settings on record: pp60v-src transfected rat 3Y1 fibroblast cell line; Matsuyoshi et al. 1992; cited from earlier work.
Assay [6] concerns BBECs. Format: cell-based, bovine.
Assay [7] concerns MDCK cells. The settings on record: Volberg et al. 1992; cited from earlier work.
For assay [8], the system named is MDCK cells. Format: cell-based, canine.
In assay [9] the test system is BBECs. Format: cell-based, bovine. This is another data set of the same source.
Assay [10] concerns bovine brain microvessel endothelial cells (BBECs). Type of assay: cell-based.
Assay [11] concerns MDCK strain I cells. Type of assay: cell-based, canine. The source holds these as a separate data set.
Assay [12] concerns ZO-1 and associated proteins. Type of assay: cell-based, canine.
The test system of assay [13] is brain tissue from normal adult rat. As to the kind of experiment: Phosphotyrosine (4G10) label of blood vessels in rat brain tissue exposed to pervanadate. The settings on record: rat brain tissue exposed to pervanadate (FIG. 10F). On the procedure: In these experiments, brain sections were labelled with an antibody to phosphotyrosine (monoclonal antibody 4G10) and labelled with a polyclonal antibody to collagen type IV to outline blood vessels. In sham operated animals, 4G10 label was restricted to a few large, peripherally located, vessels with a pattern of staining consistent with tyrosine phosphorylation of proteins at the borders of cells lining the vessels. After 24 hours of MCA occlusion an increase in 4G10 label was seen associated with microvessels located at the edge of the severely damaged tissue (see FIG. 10). The increase in 4G10 label was restricted to vessels in the area of the lesion, but not every vessel was labelled. 4G10 distribution in the microvessels is similar to that seen when brain tissue from normal adult rat is exposed to pervanadate, a drug that elevates levels of phosphotyrosine by inhibiting the enzymes responsible for tyrosine dephosphorylation.
Sections were air-dried and permeablised with 95% ethanol at −95° C. for 30 minutes followed by acetone at room temperature for 1 minute. All of the antibody incubations and washes used PBS containing 5×10^−4 M sodium vanadate. […]

Entries after “also recorded” stand apart in the source; their conditions may differ. Like-named read-outs stand apart in the source and are kept apart here.

With `OCC(S)CS` (centres unmarked) [2,3-dimercaptopropanol], the “block of PAO-induced decrease in TER by reducing agent” value in the assay with MDCK strain I cells [1] (MDCK cells preincubated 10 minutes with 200 μM β-mercaptoethanol or 100 μM 2,3-dimercaptopropanol, 10 μM PAO, TER 30 minutes later (FIG. 2b)) is given as “blocked”. Besides, the “block of BAPTA-elicited decrease in TER” value in the assay with MDCK strain I cells [1] (MDCK cells, 100 μM 2,3-dimercaptopropanol preincubation, 3 mM BAPTA (FIG. 2b)) was “did not block”. Besides, the “reversal of PAO-stimulated catenin tyrosine phosphorylation” value in [2] is “is reversed; also recorded: reversed catenin tyrosine phosphorylation”.
As to `O=C(O)CN(CC(=O)O)c1ccccc1OCCOc1ccccc1N(CC(=O)O)CC(=O)O` [BAPTA, bis- (O-aminophenoxy)-ethane-N,N,N′,N′-tetraacetic acid], in the assay on MDCK strain I cells [1] (MDCK strain I cells, preformed pervanadate 0.01-0.1 mM (FIG. 1b), PAO 1-30 μM (FIG. 2a), BAPTA 2.5-3 mM), the “change in TER” value was “decrease in TER”.
`Nc1ncnc2c1ncn2[C@@H]1O[C@@H]2COP(=O)(O)O[C@H]2[C@H]1O` [cyclic AMP]: the “effect of cyclic AMP on TER” value in [3] is reported as “increases TER”.
`CO[C@H]1[C@@H](OC)C[C@H](C)[C@@H](OC)C2=CC(=O)C=C(NC(=O)/C(C)=C/C=C\[C@H](OC)[C@@H](OC(N)=O)/C(C)=C/[C@@H]1C)C2=O` [herbimycin A]: the “effect of herbimycin A on PAO-induced increase in protein tyrosine phosphorylation” value in the assay on MDCK strain I cells [4] is given as “attenuated the ability of PAO to increase protein tyrosine phosphorylation”. Further, in the assay on MDCK strain I cells [1], the “effect of herbimycin A alone on resistance” value is “did not affect resistance” and the “effect of herbimycin A pretreatment on PAO-induced decrease in transcellular electrical resistance” value is listed as “attenuated the decrease in transcellular electrical resistance”.
As for `[O]=[V]([O-])([O-])[O-]` [vanadate], in the assay on MDCK strain I cells [1], the “change in TER after addition of H2O2 to vanadate pretreated cells” value is “caused a rapid decrease in TER”; the “change in TER over a longer time period, vanadate alone” value is on record as “caused a decrease in TER”; the “change in TER, vanadate alone” value is “did not cause a decrease in TER”. In addition, in [5], the “tyrosine phosphorylation of cadherin and β-catenin” value is “induced the tyrosine phosphorylation of E- or P-cadherin and β-catenin”.
For `OCCS` [β-mercapto-ethanol, β-mercaptoethanol], in the assay on MDCK strain I cells [1], the “block of PAO-induced decrease in TER by reducing agent” value is listed as “not”.
pervanadate: in the assay on BBECs [6], the “tyrosine phosphorylation of proteins in whole cell lysates” value was “caused an increase in the tyrosine phosphorylation of many proteins”. In addition, in the assay on MDCK cells [7], the “effect on the tight junction, by immunostaining of ZO-1” value was “had no effect on the tight junction” and the “tyrosine phosphorylation of proteins at the adherens junction” value is on record as “elicited tyrosine phosphorylation of proteins at the adherens junction”. The “tyrosine phosphorylation of proteins in whole cell lysates” value in the assay with MDCK strain I cells [4] is “caused an increase in the tyrosine phosphorylation of many proteins”. Also, in the assay with MDCK strain I cells [1], the “change in TER” value is “elicited a decrease in TER” and the “reversibility of the induced decrease in TER by reducing agent if added early enough” value is “partially reversed”. The “paracellular flux of sucrose” value with MDCK cells [8] was “increase the paracellular flux of sucrose”. The anti-phosphotyrosine staining pattern result in the assay with BBECs [9] was “initially caused an increase in staining at the adherens junction at the intercellular borders”. The “change in TER” value in [10] is “caused a dose-dependent and rapid decrease in TER”. In [2], the “tyrosine phosphorylation of proteins in anti-E-cadherin immunoprecipitates” value is “stimulates the tyrosine phosphorylation of several catenins as well as E-cadherin; also recorded: caused an increase in the tyrosine phosphorylation of several proteins”, the “tyrosine phosphorylation of α-catenin in α-catenin immunoprecipitates” value is “could not be detected” and the “β-catenin content of phosphotyrosine immunoprecipitates” value is “is increased; also recorded: rapidly increased”. Also, the anti-phosphotyrosine staining pattern result in the assay on MDCK strain I cells [11] was “initially caused an increase in staining at the adherens junction at the intercellular borders”. Also, in assay [12], the “tyrosine phosphorylation of ZO-1” value is on record as “also stimulated tyrosine phosphorylation of ZO-1; also recorded: clearly resulted in the tyrosine phosphorylation” and the “tyrosine phosphorylation of ZO-2” value is recorded as “clearly resulted in the tyrosine phosphorylation”. Also, the “phosphotyrosine label of blood vessels” value in assay [13] was “induces detectable levels of phosphotyrosine in both large and small vessels; also recorded: induces increased phosphotyrosine in both small and large blood vessels”.
